Assays:
Format in all cases: in vivo
souris [1] = experiment: Acute toxicity, intraperitoneal, mouse; conditions: I.P.
Experimental: (§1) Dans ces essais les produits à tester en solution dans de l'eau distillée (pH5) ont été administrés, par voie intrapéritonéale, sous un volume de 20 ml/kg chez la souris mâle, et, sous un volume de 5 ml/kg chez le rat mâle.
Le CRL 40 996 est moins toxique que les CRL 40 995 et CRL 40 827. En effet si la DL-0 (dose maximale non mortelle) des trois substances est supérieure ou égale à 64 mg/kg (I.P.; souris), la DL-60 du CRL 40 996 est de l'ordre de 128 mg/kg (I.P.; souris)et la DL-100 des CRL 40 995 et CRL 40 827 est inférieure ou égale à 128 mg/kg (I.P.; souris).

souris [2] = experiment: Interaction with oxotremorine; conditions: for effet hypothermisant de l'oxotrémorine / tremblements provoqués par l'oxotrémorine: 0.5 h before oxotremorine 0,5 mg/kg i.p.
Experimental: as §1
Chaque produit à tester est administré à des lots de 6 souris une demi-heure avant l'injection intrapéritonéale de 0,5 mg/kg d'oxotrémorine.

souris [3] = experiment: Spontaneous motility (actimeter); conditions: recorded for 0,5 h, 0.5 h after dosing
Experimental: as §1
Une demi-heure après avoir reçu les produits à tester, les souris (6 par dose, 12 témoins) sont placées en actimètre où leur motilité est enregistrée pendant 0,5 h.

souris [4] = experiment: Global behaviour and reactivities, mouse; conditions: for comportement et réactivités: doses of 2 and 0,5 mg/kg i.p.
Experimental: as §1
(§2) Des lots de 6 animaux sont observés avant, puis 0,25 h, 0,50 h, 1 h, 2 h, 3 h, et 24 h après administration des produits à étudier.

rat = experiment: Global behaviour and reactivities, rat
Experimental: as §1, §2

souris [5] = experiment: Interaction with apomorphine; conditions: 0.5 h before apomorphine 16 mg/kg s.c.
Experimental: as §1
Des lots de 6 souris reçoivent chaque produit à tester une demi-heure avant l'injection sous-cutanée de 16 mg/kg d'apomorphine.

souris [6] = experiment: Interaction with reserpine
Experimental: as §1
Quatre heures après l'injection intrapéritonéale de 2,5 mg/kg de réserpine, des lots de 6 souris reçoivent chaque produit à tester.

souris [7] = experiment: Behavioural despair (immobility in water); conditions: 0.5 h before immersion
Experimental: as §1
Une demi-heure après avoir reçu les produits à tester, des lots de 6 souris sont placés dans un bécher rempli d'eau sur une hauteur de 6 cm. On note la durée totale d'immobilité entre la 2ème et la 6ème minutes suivant l'immersion.

homme = experiment: Clinical use in depressive states; conditions: oral route, human
Experimental: La posologie préconisée consiste à administrer par jour 3 comprimés ou gélules renfermant chacun 3 à 4 mg de CRL 40 996.

[8] = peripheral cholinergic symptoms after oxotremorine 0,5 mg/kg i.p.
[9] = 32 mg/kg i.p., 4 h after reserpine 2,5 mg/kg i.p.
[10] = doses of 0,5, 2 and 8 mg/kg i.p., 4 h after reserpine 2,5 mg/kg i.p.
[11] = from the dose of 0,5 mg/kg i.p.
[12] = from the dose of 0.5 mg/kg i.p.

CC(C)(C)NCC(O)c1ccccc1F (racemic) [CRL 40 827, chlorhydratede ( + )-1-(2-fluorophényl)-2-tertiobutylamino-1-éthanol]
DL-0 (dose maximale non mortelle) (souris [1]): ≥ 64 mg/kg | DL-100 (souris [1]): ≤ 128 mg/kg | effet hypothermisant de l'oxotrémorine (souris [2]; i.p., dose not stated): an- tagonisé | tremblements provoqués par l'oxotrémorine (souris [2]; i.p., dose not stated): ne sont pas modifiés | signes de stimulation cholinergique (souris [2]; [8]): laissent inchangés | activité motrice spontanée (souris [3]; 8 mg/kg i.p.): ne modifie pas | activité motrice spontanée (souris [3]; 32 mg/kg i.p.): semble la diminuer modérément mais pas significativement

CC(C)(C)NCC(O)c1ccccc1F (single isomer, unassigned) [CRL 40 995, chlorhydratede (+)-1-(2-fluorophényl)-2-tertio-butylamino-1-éthanol]
DL-0 (dose maximale non mortelle) (souris [1]): ≥ 64 mg/kg | DL-100 (souris [1]): ≤ 128 mg/kg | comportement et réactivités (souris [4]): sans modifications sensibles par rapport aux animaux témoins | respiration déprimée (duration) (souris [4]; doses of 32 and 8 mg/kg i.p.): 0,5 h | comportement et réactivités (rat; doses of 16, 4, 1 and 0,5 mg/kg i.p.): sans modifications sensibles par rapport aux animaux témoins | action hypothermisante de l'apomorphine (souris [5]; doses of 8 and 32 mg/kg i.p.): s'oppose | comportement de verticalisation et stéréotypies (souris [5]; doses of 8 and 32 mg/kg i.p.): sans modifier | antagonisme de l'hypothermie réserpinique (animals showing it) (souris [6]; [9]): 5 souris sur 6 | perte du réflexe de redressement (et l'hypothermie qui en résulte) (souris [6]; [9]): 1 souris sur 6 | hypothermie réserpinique (souris [6]; [10]): s'oppose modérément | ptôsis (souris [6]; [10]): sans modifier | tremblements provoqués par l'oxotrémorine (souris [2]; 32 mg/kg i.p., worded as 'seems'): potentialiser | effet hypothermisant de l'oxotrémorine (souris [2]; i.p., dose not stated): n'est pas modifié | signes de stimulation cholinergique (souris [2]; [8]): laissent inchangés | activité motrice spontanée (souris [3]; doses of 8 and 32 mg/kg i.p.): diminue modérément | durée de l'immobilité dite du "désespoir comportemental" (souris [7]; i.p., dose not stated): ne modifie pas

CC(C)(C)NCC(O)c1ccccc1F (single isomer, unassigned) [CRL 40 996, chlorhydratede (-)-1-(2-fluorophényl)-2-tertio-butylamino-1-éthanol]
DL-0 (dose maximale non mortelle) (souris [1]): ≥ 64 mg/kg | DL-60 (souris [1]): ~128 mg/kg | diminution de la réactivité au toucher et du tonus musculaire (duration) (souris [4]; 8 mg/kg i.p.): 0,25 h | hypothermie (souris [4]; 8 mg/kg i.p.): -1,8 °C | hypothermie (duration) (souris [4]; 8 mg/kg i.p.): 0,25 h | sédation (duration) (souris [4]; 8 mg/kg i.p.): 0,5 h | diminution de la réactivité au toucher et du tonus musculaire (duration) (souris [4]; 32 mg/kg i.p.): 0,25 h | disparition du "pinna reflex" (duration) (souris [4]; 32 mg/kg i.p.): 0,5 h | hypothermie (souris [4]; 32 mg/kg i.p.): -2,0 °C | sédation (duration) (souris [4]; 32 mg/kg i.p.): 0,5 h | comportement et réactivités (souris [4]): sans modifications sensibles par rapport aux animaux témoins | sédation fugace (duration) (rat; 4 mg/kg i.p.): 0,25 h | dyspnée (duration) (rat; 16 mg/kg i.p.): 1 h | sédation (duration) (rat; 16 mg/kg i.p.): 0,5 h | comportement et réactivités (rat; doses of 1 and 0,25 mg/kg i.p.): sans modifications sensibles par rapport aux animaux témoins | comportement de verticalisation et stéréotypies (souris [5]; [11]): sans modifier | hypothermie induite par l'apomorphine (souris [5]; [11]): antagonisme net | latence de l'effet sur l'hypothermie réserpinique (souris [6]; [12]): ~1 heure | ptôsis (souris [6]; [12]): sans modifier | hypothermie réserpinique (souris [6]; from the dose of 0.5 mg/kg i.p., effect does not clearly increase with dose): combat modérément | effet hypothermisant de l'oxotrémorine (souris [2]; i.p., dose not stated): an- tagonisé | tremblements provoqués par l'oxotrémorine (souris [2]; i.p., dose not stated): ne sont pas modifiés | défécation (souris [2]; [8]): semble diminuer | salivation et lacrymation (souris [2]; [8]): sans modifier | activité motrice spontanée (souris [3]; doses of 8 and 32 mg/kg i.p.): diminution très importante | durée d'immobilité (souris [7]; doses of 8 and 32 mg/kg i.p.): diminue modérément | effet antidépresseur dans le traitement des états dépressifs (homme): bon agent antidépresseur
